What all share (assay type): cell-based
In one assay the target is ER (Homo sapiens (Human), UniProt P03372). Briefly: In-cell western blot analysis of ER for "B" compounds. Conditions: 16 hours, read-out: ICW DC50. On the procedure:
R^T 2h, gentle shaking. Negative control: cells plus secondary antibodies (no primary antibodies); e, wash x 4 with PBS+0.05-0.1% Tween 20, gentel shaking; f, anti-rabbit-680 and anti-mouse-800 (both 1:1000 in LiCor block+0.05% Tween20, R^T 1h, gentle shaking, no light. LI-COR: 0.2% to reduce background; g, wash×4 with PBS+0.05% Tween 20, gental shaking; h, add 100 μL or 25 μL of PBS to each well and read on CLX plate reader. The relative ER percentage in treated cells were obtained by comparing the values of treated wells to those in untreated and DMSO-treated wells as 100%.

Assay [1] in a line: Western blot analysis for "B" compounds. As to conditions: read-out: Traditional Western Degradation Potency (DC50). In outline: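 Target protein levels given as relative mean band intensity over GAPDH from scanned immunoblots. Lysates of treated cells in RIPA buffer, equalized by BCA, separated on 10% gels and transferred to PVDF.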
(In western blotting, separated proteins are transferred to a membrane and probed.)

The nature of assay [2]: Cell growth assay (WST-8) for "B" compounds. As to conditions: T47D cell line, read-out: Cell growth Inhibition in T47D cell line IC50. The procedure: Cell Growth Assay. The cells were seeded at 1500/well in 96 well plates overnight. One day after the seeding, they were treated with indicated doses of compounds respectively, 4 days after the compound treatment, 10% WST-8 reagent was added to the culture medium and incubate in a CO2 incubator at 37° C. for 2.5 hours. Before reading, the plate was mixed gently on an orbital shaker for one minute to ensure homogeneous distribution of color. The absorbance was measured of each sample using a microplate reader at a wavelength of 450 nm. The relative absorbance was calculated against the vehicle control from three individually repeats.
A general note: Tetrazolium dyes change colour on reduction, which living cells bring about.

15 compounds from patent US20260028354A1, “TETRAHYDRONAPHTHALENE DERIVATIVES AS ESTROGEN RECEPTOR DEGRADERS” (REGENT OF THE UNIVERSITY OF MICHIGAN, priority 2022, published 2026) can be followed below.

SMILES strings stand for the structures. pIC50: −log10 of the molar value. Read-outs that look alike come from different tables or passages of the source.

Sequence of ER (P03372 whole entry): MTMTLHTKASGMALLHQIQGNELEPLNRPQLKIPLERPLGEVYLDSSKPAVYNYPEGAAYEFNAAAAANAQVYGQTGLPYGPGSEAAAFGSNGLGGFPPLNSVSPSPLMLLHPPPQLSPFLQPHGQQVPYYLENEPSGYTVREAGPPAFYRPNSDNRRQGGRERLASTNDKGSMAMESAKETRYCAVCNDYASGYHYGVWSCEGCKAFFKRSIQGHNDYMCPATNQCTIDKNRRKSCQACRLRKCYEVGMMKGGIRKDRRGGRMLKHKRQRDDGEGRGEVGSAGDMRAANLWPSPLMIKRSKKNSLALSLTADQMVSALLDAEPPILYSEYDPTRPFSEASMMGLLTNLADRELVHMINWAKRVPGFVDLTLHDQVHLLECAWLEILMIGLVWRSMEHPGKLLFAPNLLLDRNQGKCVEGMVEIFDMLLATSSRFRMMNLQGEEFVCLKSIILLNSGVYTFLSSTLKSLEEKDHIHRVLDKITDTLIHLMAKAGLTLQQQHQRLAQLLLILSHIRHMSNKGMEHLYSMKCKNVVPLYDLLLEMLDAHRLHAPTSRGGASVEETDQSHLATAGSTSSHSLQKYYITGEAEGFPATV

Consider `O=C1CCC(Nc2ccc(C3CCN(CC4CCN(c5ccc([C@@H]6c7ccc(O)cc7CC[C@@H]6c6ccccc6)cc5)CC4)CC3)cc2F)C(=O)N1` (stereo partly drawn) [Compound B378, 3-((2-fluoro-4-(1-((1-(4-((1R,2S)-6-hydroxy-2-phenyl-1,2,3,4-tetrahydronaphthalen-1-yl)phenyl)piperidin-4-yl)methyl)piperidin-4-yl)phenyl)amino)piperidine-2,6-dione], for which the DC50 on ER is more than 100 nM.
Consider `O=C1CCC(N2Cc3c(ccc4c3OC[C@H]3CN(CC5CC6CN(c7ccc([C@@H]8c9ccc(O)cc9CC[C@@H]8c8ccccc8)cc7)CC6C5)CCN43)C2=O)C(=O)N1` (stereo partly drawn) [Compound B320, 3-((5aR)-7-(((3aRS,6aSR)-2-(4-((1R,2S)-6-hydroxy-2-phenyl-1,2,3,4-tetrahydronaphthalen-1-yl)phenyl)octahydrocyclopenta[c]pyrrol-5-yl)methyl)-1-oxo-1,3,5,5a,6,7,8,9-octahydro-2H-pyrazino[1′,2′:4,5][1,4]oxazino[2,3-c]isoindol-2-yl)piperidine-2,6-dione], for which the DC50 at ER was more than 100 nM.
`O=C1CCC(N2C(=O)c3cc4c(cc3C2=O)CN(CC(=O)N2CCC3(CC2)CCN(c2ccc([C@@H]5c6ccc(O)cc6CC[C@@H]5c5ccccc5)cc2)CC3)C4)C(=O)N1` (stereo partly drawn) [Compound B133, 2-(2,6-dioxopiperidin-3-yl)-6-(2-(9-(4-((1R,2S)-6-hydroxy-2-phenyl-1,2,3,4-tetrahydronaphthalen-1-yl)phenyl)-3,9-diazaspiro[5.5]undecan-3-yl)-2-oxoethyl)-6,7-dihydropyrrolo[3,4-f]isoindole-1,3(2H,5H)-dione]: the DC50 in assay [1] lay in the range of 10 to 100 nM. Further, the pIC50 – broadly, the IC50 on a negative log10 scale, so that one unit is a factor of ten – in assay [2] was 8.00 to 9.00.
Regarding `COc1c2c(cc3c1C(=O)N(C1CCC(=O)NC1=O)C3=O)CN(CC(=O)N1CCC3(CC1)CCN(c1ccc([C@@H]4c5ccc(O)cc5CC[C@@H]4c4ccccc4)cc1)CC3)C2` (stereo partly drawn) [Compound B136, 2-(2,6-dioxopiperidin-3-yl)-6-(2-(9-(4-((1R,2S)-6-hydroxy-2-phenyl-1,2,3,4-tetrahydronaphthalen-1-yl)phenyl)-3,9-diazaspiro[5.5]undecan-3-yl)-2-oxoethyl)-4-methoxy-6,7-dihydropyrrolo[3,4-f]isoindole-1,3(2H,5H)-dione], the DC50 in assay [1] fell in the range of 10 to 100 nM. The pIC50 in assay [2] (T47D) was 8.00 to 9.00.
Turning to `O=C1CCC(N2C(=O)c3cc4c(cc3C2=O)CN(CC(=O)N2CCC3(CC2)CCN(c2ccc([C@@H]5c6ccc(B(O)O)cc6CC[C@@H]5c5ccccc5)cc2)CC3)C4)C(=O)N1` (mixture of isomers) [Compound B50, ((5R,6S)-5-(4-(9-(2-(6-(2,6-dioxopiperidin-3-yl)-5,7-dioxo-3,5,6,7-tetrahydropyrrolo[3,4-f]isoindol-2(1H)-yl)acetyl)-3,9-diazaspiro[5.5]undecan-3-yl)phenyl)-6-phenyl-5,6,7,8-tetrahydronaphthalen-2-yl)boronic acid], the DC50 in assay [1] is 10 to 100 nM. Moreover, in assay [2] (T47D), the negative logarithm of the IC50 (pIC50) was less than 8.00.
On to `C[C@H]1CC2(CCN(C(=O)CN3Cc4cc5c(cc4C3)C(=O)N(C3CCC(=O)NC3=O)C5=O)CC2)CN1c1ccc([C@@H]2c3ccc(O)cc3CC[C@@H]2c2ccccc2)cc1` (mixture of isomers) [Compound B24, 2-(2,6-dioxopiperidin-3-yl)-6-(2-((S)-2-(4-((1R,2S)-6-hydroxy-2-phenyl-1,2,3,4-tetrahydronaphthalen-1-yl)phenyl)-3-methyl-2,8-diazaspiro[4.5]decan-8-yl)-2-oxoethyl)-6,7-dihydropyrrolo[3,4-f]isoindole-1,3(2H,5H)-dione], for which the DC50 in assay [1] lay within 10 to 100 nM. In addition, the negative-log IC50 (pIC50) in assay [2] (T47D) is less than 8.00.
Turning to `O=C1CCC(N2C(=O)c3cc4c(cc3C2=O)CN(CC(=O)N2CCC3(CC2)CCN(c2ccc([C@@H]5c6ccc(O)cc6CC[C@@H]5C5CCC(F)(F)CC5)cc2)CC3)C4)C(=O)N1` (mixture of isomers) [Compound B48, 6-(2-(9-(4-((1R,2R)-2-(4,4-difluorocyclohexyl)-6-hydroxy-1,2,3,4-tetrahydronaphthalen-1-yl)phenyl)-3,9-diazaspiro[5.5]undecan-3-yl)-2-oxoethyl)-2-(2,6-dioxopiperidin-3-yl)-6,7-dihydropyrrolo[3,4-f]isoindole-1,3(2H,5H)-dione], the DC50 in assay [1] was 10 to 100 nM. For the same compound, the pIC50 in assay [2] (T47D) is 8.00 to 9.00.
The matching figures for `O=C1CCC(N2C(=O)c3cc4c(cc3C2=O)CN(C2CCN(CC3CCN(c5ccc([C@@H]6c7ccc(O)cc7CC[C@@H]6c6ccccc6)cc5)CC3)CC2)C4)C(=O)N1` (stereo partly drawn) [Compound B64, 2-(2,6-dioxopiperidin-3-yl)-6-(1-((1-(4-((1R,2S)-6-hydroxy-2-phenyl-1,2,3,4-tctrahydronaphthalcn-1-yl)phenyl)pipcridin-4-yl)methyl)piperidin-4-yl)-6,7-dihydropyrrolo[3,4-f]isoindole-1,3(2H,5H)-dione]: less than 10 nM and 8.00 to 9.00.
Consider `O=C1CCC(N2C(=O)c3cc4c(cc3C2=O)CN(CC(=O)N2CCC3(CC2)CCN(c2c(F)cc([C@@H]5c6ccc(O)cc6CC[C@@H]5c5ccccc5)cc2F)CC3)C4)C(=O)N1` (mixture of isomers) [Compound B45, 6-(2-(9-(2,6-difluoro-4-((1R,2S)-6-hydroxy-2-phenyl-1,2,3,4-tetrahydronaphthalen-1-yl)phenyl)-3,9-diazaspiro[5.5]undecan-3-yl)-2-oxoethyl)-2-(2,6-dioxopiperidin-3-yl)-6,7-dihydropyrrolo[3,4-f]isoindole-1,3(2H,5H)-dione], for which the DC50 in assay [1] is more than 100 nM. Besides, the pIC50 in assay [2] (T47D) is less than 8.00.
Regarding `C[C@H]1CC2(CCN(c3ccc([C@@H]4c5ccc(O)cc5CC[C@@H]4c4ccccc4)cc3)CC2)CN1C(=O)CN1Cc2cc3c(cc2C1)C(=O)N(C1CCC(=O)NC1=O)C3=O` (mixture of isomers) [Compound B23, 2-(2,6-dioxopiperidin-3-yl)-6-(2-((S)-8-(4-((1R,2S)-6-hydroxy-2-phenyl-1,2,3,4-tetrahydronaphthalen-1-yl)phenyl)-3-methyl-2,8-diazaspiro[4.5]decan-2-yl)-2-oxoethyl)-6,7-dihydropyrrolo[3,4-f]isoindole-1,3(2H,5H)-dione], the DC50 in assay [1] lay in the range of 10 to 100 nM. In addition, the pIC50 in assay [2] (T47D) was less than 8.00.
On to `O=C1CCC(N2C(=O)c3cc4c(cc3C2=O)CN(CC(=O)N2CCC3(CC2)CCN(c2ccc([C@H]5c6ccc7[nH]ncc7c6CC[C@H]5c5ccccc5)cc2)CC3)C4)C(=O)N1` (stereo partly drawn) [Compound B138, 2-(2,6-dioxopiperidin-3-yl)-6-(2-oxo-2-(9-(4-((6S,7R)-7-phenyl-6,7,8,9-tetrahydro-3H-benzo[e]indazol-6-yl)phenyl)-3,9-diazaspiro[5.5]undecan-3-yl)ethyl)-6,7-dihydropyrrolo[3,4-f]isoindole-1,3(2H,5H)-dione], for which the DC50 in assay [1] was more than 100 nM. The pIC50 in assay [2] (T47D) was 8.00 to 9.00.
For the compound `O=C1CCC(N2Cc3cc4c(cc3C2=O)OC[C@@H]2CN(CC3CCN(c5ccc([C@@H]6c7ccc(O)cc7CC[C@@H]6c6ccccc6)cc5)CC3)CCN42)C(=O)N1` (stereo partly drawn) [Compound B135, 3-((S)-3-((1-(4-((1R,2S)-6-hydroxy-2-phenyl-1,2,3,4-tetrahydronaphthalen-1-yl)phenyl)piperidin-4-yl)methyl)-8-oxo-1,2,3,4,4a,5,8,10-octahydro-9H-pyrazino[1′,2′:4,5][1,4]oxazino[2,3-f]isoindol-9-yl)piperidine-2,6-dione], the DC50 in assay [1] was 10 to 100 nM. The pIC50 in assay [2] (T47D) is 8.00 to 9.00.
`O=C1CCC(N2C(=O)c3cc4c(cc3C2=O)CN(CC(=O)N2CCC3(CC2)CCN(c2ccc([C@@H]5c6ccc(O)cc6CC[C@@H]5c5ccccc5)cc2)CC3)C4)C(=O)N1` (mixture of isomers) [Compound B12, 2-(2,6-dioxopiperidin-3-yl)-6-(2-(9-(4-((1R,2S)-6-hydroxy-2-phenyl-1,2,3,4-tetrahydronaphthalen-1-yl)phenyl)-3,9-diazaspiro[5.5]undecan-3-yl)-2-oxoethyl)-6,7-dihydropyrrolo[3,4-f]isoindole-1,3(2H,5H)-dione]: the DC50 in assay [1] lay within 10 to 100 nM. In addition, the pIC50 in assay [2] is less than 8.00.
Regarding `O=C1CCC(N2C(=O)c3cc4c(cc3C2=O)CCN(CC(=O)N2CCC3(CC2)CCN(c2ccc([C@@H]5c6ccc(O)cc6CC[C@@H]5c5ccc(F)cc5)cc2)CC3)CC4)C(=O)N1` (stereo partly drawn) [Compound B52, 2-(2,6-dioxopiperidin-3-yl)-7-(2-(9-(4-((1R,2S)-2-(4-fluorophenyl)-6-hydroxy-1,2,3,4-tetrahydronaphthalen-1-yl)phenyl)-3,9-diazaspiro[5.5]undecan-3-yl)-2-oxoethyl)-6,7,8,9-tetrahydroazepino[4,5-f]isoindole-1,3(2H,5H)-dione], the DC50 in assay [1] is more than 100 nM. In addition, the negative logarithm of the IC50 (pIC50) in assay [2] (T47D) was 8.00 to 9.00.
Regarding `O=C1CCC(N2C(=O)c3cc4c(cc3C2=O)CN(C(=O)C2CCN(CC3CCN(c5ccc([C@@H]6c7ccc(O)cc7CC[C@@H]6c6ccccc6)cc5)CC3)CC2)C4)C(=O)N1` (stereo partly drawn) [Compound B57, 2-(2,6-dioxopiperidin-3-yl)-6-(1-((1-(4-((1R,2S)-6-hydroxy-2-phenyl-1,2,3,4-tetrahydronaphthalen-1-yl)phenyl)piperidin-4-yl)methyl)piperidine-4-carbonyl)-6,7-dihydropyrrolo[3,4-f]isoindole-1,3(2H,5H)-dione], the DC50 in assay [1] is more than 100 nM. Further, the pIC50 in assay [2] (T47D) is 8.00 to 9.00.
